The target in series [1] is T1, NLRP3 (Homo sapiens, UniProt Q96P20). Put plainly: Human whole blood IL1β release assay. The class given is cell-based. Conditions: LPS 1 μg/ml, nigericin 10 μM, IL-1β AlphaLisa, 10 μM top dose (Example 2: top dose of 30 μM), read-out: HWB IC50. The procedure, abridged:
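Healthy-donor heparinised human whole blood with 1 μg/ml LPS, compound (8-point half-log dilution, 10 μM top dose unless stated; 0.1% DMSO vehicle) for 3 h at 37 °C, then nigericin 10 μM final for 1 h. Supernatant IL-1β by AlphaLISA; IC50 from 4-parameter variable-slope fit.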

Series [2] is described as follows: PK, intravenous administration. Type of series: in vivo. Conditions: rat, plasma, male Sprague Dawley rats, dose about 1 mg/kg; for Vd: read-out: Vdss. Here is the method:
Pharmacokinetic parameters were determined in male Sprague Dawley rats (Vital River Laboratory Animal Technology Co Ltd, Beijing, China, 6-9 weeks old). Animals were maintained under a 12 h light/dark cycle. Animals had free access to food and water, except that orally dosed animals were food deprived overnight prior to the study.
For intravenous administration, compounds were formulated as a solution (in DMSO:water [10:90] or in DMSO:PBS [10:90]) in 2 mL/kg dosing volume and administered via tail vein. For oral administration, compounds were formulated as a solution (in 0.5% methylcellulose in water) in […] dosing volume and administered orally.
Serial blood samples (about 200 μL) were taken from each animal at each of 8 time-points post dose ([…], 0.25, 0.5, 1, 2, 4, 8 and 24 h). Samples were held on ice for no longer than 30 minutes before centrifugation (5,696 rpm (3,000 g) for 15 minutes) for plasma generation. Plasma was frozen on dry ice prior to bioanalysis. PK parameters were generated from LC-MS/MS data using Phoenix WinNonlin 6.3 software.

Series [3] concerns the target T1, NLRP3. Put plainly: THP-1 cells pyroptosis assay. On the set-up: Seed THP-1 cells (25,000 cells/well) containing 1.0 μg/ml LPS; host or cells: THP-1. The class given is cell-based. Conditions: LPS 1.0 μg/ml, nigericin 5 μM, resazurin readout, 10 μM top dose (Example 2: top dose of 30 μM). The procedure, abridged:
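Pyroptosis induced by 5 μM nigericin (1 h) in LPS-primed (1 μg/ml) THP-1 cells, 25,000/well in serum-free RPMI, after 3 h compound pre-treatment (8 points, 10 μM top unless stated). Surviving cells measured with 100 μM resazurin, Ex 560/Em 590; IC50 via variable-slope 4-parameter regression.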

T1 sequence (Q96P20 whole entry): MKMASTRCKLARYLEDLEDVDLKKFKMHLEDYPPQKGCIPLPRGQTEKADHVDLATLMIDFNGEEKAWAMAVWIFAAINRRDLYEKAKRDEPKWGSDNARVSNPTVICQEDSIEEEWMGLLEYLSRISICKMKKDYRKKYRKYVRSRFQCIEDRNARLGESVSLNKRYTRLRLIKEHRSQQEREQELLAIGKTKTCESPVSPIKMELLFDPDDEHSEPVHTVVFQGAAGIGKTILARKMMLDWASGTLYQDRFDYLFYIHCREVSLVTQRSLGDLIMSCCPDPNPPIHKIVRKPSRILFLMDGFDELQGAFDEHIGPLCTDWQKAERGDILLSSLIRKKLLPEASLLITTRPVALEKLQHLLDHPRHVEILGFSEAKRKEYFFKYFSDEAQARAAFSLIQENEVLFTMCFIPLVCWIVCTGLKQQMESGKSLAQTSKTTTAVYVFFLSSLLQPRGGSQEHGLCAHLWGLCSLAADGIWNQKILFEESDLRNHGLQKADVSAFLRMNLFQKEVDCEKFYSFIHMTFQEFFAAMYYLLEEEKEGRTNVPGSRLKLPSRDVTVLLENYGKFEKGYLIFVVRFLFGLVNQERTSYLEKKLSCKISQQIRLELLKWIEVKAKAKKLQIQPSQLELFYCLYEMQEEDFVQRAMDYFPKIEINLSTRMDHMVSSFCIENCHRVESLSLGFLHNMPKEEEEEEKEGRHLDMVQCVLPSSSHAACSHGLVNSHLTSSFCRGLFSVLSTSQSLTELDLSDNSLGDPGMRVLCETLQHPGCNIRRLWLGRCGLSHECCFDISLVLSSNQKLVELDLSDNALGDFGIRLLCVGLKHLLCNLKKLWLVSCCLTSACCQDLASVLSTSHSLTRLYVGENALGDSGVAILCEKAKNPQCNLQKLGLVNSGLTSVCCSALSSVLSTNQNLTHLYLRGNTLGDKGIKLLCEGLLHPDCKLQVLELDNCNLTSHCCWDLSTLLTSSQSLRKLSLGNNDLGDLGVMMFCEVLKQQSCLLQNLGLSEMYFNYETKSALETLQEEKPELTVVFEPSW

What is called IC50 is the concentration at which inhibition is half-maximal. For orientation: AUC means the area under the concentration-time curve, a measure of exposure. As usually defined, the clearance is the rate of elimination divided by the concentration. High values mean efficient removal, low ones inefficient removal. In general, half-life refers to the time in which the quantity being followed falls by half. High values mean slow loss, low ones fast loss. On to `CS(=O)(=O)c1nnc(Nc2c3c(cc4c2CCC4)CCC3)[nH]1` [Example 75, N-(1,2,3,5,6,7-hexahydro-s-indacen-4-yl)-5-(methylsulfonyl)-4H-1,2,4-triazol-3-amine], for which the concentration for half-maximal inhibition (IC50) on NLRP3 [1] is not above 10000 nM. In addition, in series [2], the AUC was 1000 ng·h/mL, the clearance was 16.7 mL/min/kg, the half-life was 0.5 h and the Vd is 0.56 L/kg. The IC50 at NLRP3 [3] is not above 5000 nM.

Turning to `CCN(CC)CCCS(=O)(=O)c1nnc(Nc2c3c(cc4c2CCC4)CCC3)[nH]1` [Example 24, 5-((3-(diethylamino)propyl)sulfonyl)-N-(1,2,3,5,6,7-hexahydro-s-indacen-4-yl)-4H-1,2,4-triazol-3-amine], the 50% inhibitory concentration (IC50) at NLRP3 [1] was not above 1000 nM. Also, in series [2], the exposure (AUC) is 173 ng·h/mL, the clearance was 96.5 mL/min/kg, the half-life was 0.8 h and the Vd worked out at 5.26 L/kg. The compound also showed an IC50 at NLRP3 [3] not above 500 nM.

For the compound `CN(C)C1CCN(S(=O)(=O)c2nnc(Nc3c4c(c(Cl)c5c3CCC5)CCC4)[nH]2)CC1` [Example 300, 1-((5-((8-chloro-1,2,3,5,6,7-hexahydro-s-indacen-4-yl)amino)-1H-1,2,4-triazol-3-yl)sulfonyl)-N,N-dimethylpiperidin-4-amine], the IC50 on NLRP3 [1] is not above 5000 nM. In series [2], the AUC turned out to be 235 ng·h/mL, the clearance turned out to be 70.8 mL/min/kg, the half-life was 2.65 h and the Vd amounted to 10.6 L/kg. Moreover, the IC50 against NLRP3 [3] is not above 500 nM.

`CN(C)CC1CCN(S(=O)(=O)c2nnc(Nc3c4c(cc5c3CCC5)CCC4)[nH]2)C1` (stereo not drawn) [Example 119, 5-((3-((dimethylamino)methyl)pyrrolidin-1-yl)sulfonyl)-N-(1,2,3,5,6,7-hexahydro-s-indacen-4-yl)-4H-1,2,4-triazol-3-amine]: the IC50 on NLRP3 [1] is not above 500 nM. Also, in series [2], the AUC worked out at 162 ng·h/mL, the clearance is 106 mL/min/kg, the half-life was 2.6 h and the Vd is 10.1 L/kg. In addition, the IC50 on NLRP3 [3] is not above 500 nM.

As for `CN1CCCC12CCN(S(=O)(=O)c1nnc(Nc3c4c(cc5c3CCC5)CCC4)[nH]1)CC2` [Example 278, N-(1,2,3,5,6,7-hexahydro-s-indacen-4-yl)-5-((1-methyl-1,8-diazaspiro[4.5]decan-8-yl)sulfonyl)-4H-1,2,4-triazol-3-amine], at NLRP3 [1], the half-maximal inhibitory concentration (IC50) is not above 500 nM. In series [2], the AUC came out at 278 ng·h/mL, the clearance turned out to be 60 mL/min/kg, the half-life is 1.8 h and the Vd stood at 5.9 L/kg. Moreover, the concentration for half-maximal inhibition (IC50) against NLRP3 [3] was not above 500 nM.

For the compound `COc1cc(-c2ccc3c(c2Nc2nnc(S(=O)(=O)N4CC5(CCN(C)C5)C4)[nH]2)CCC3)ccn1` [Example 215, N-(5-(2-methoxypyridin-4-yl)-2,3-dihydro-1H-inden-4-yl)-5-((6-methyl-2,6-diazaspiro[3.4]octan-2-yl)sulfonyl)-4H-1,2,4-triazol-3-amine], the half-inhibitory concentration (IC50) at NLRP3 [1] is not above 500 nM. Besides, in series [2], the exposure (AUC) amounted to 58 ng·h/mL, the clearance came out at 121 mL/min/kg, the half-life was 0.52 h and the Vd amounted to 2.86 L/kg. The IC50 against NLRP3 [3] was not above 500 nM.

On to `COc1cc(-c2ccc3c(c2Nc2nnc(S(=O)(=O)N4CC5(CCN(C)C5)C4)[nH]2)CCO3)ccn1` [Example 214, N-(5-(2-methoxypyridin-4-yl)-2,3-dihydrobenzofuran-4-yl)-5-((6-methyl-2,6-diazaspiro[3.4]octan-2-yl)sulfonyl)-4H-1,2,4-triazol-3-amine], for which, at NLRP3 [1], the IC50 is not above 500 nM. Moreover, in series [2], the exposure (AUC) came to 182 ng·h/mL, the clearance was 78.1 mL/min/kg, the half-life was 0.25 h and the Vd was 1.02 L/kg. This compound also displayed an IC50 against NLRP3 [3] not above 500 nM.

Consider `CCN(CC)CCCS(=O)(=O)c1nnc(Nc2c(-c3ccnc(OC)c3)cc(F)cc2C(C)C)[nH]1` [Example 79, 5-((3-(diethylamino)propyl)sulfonyl)-N-(4-fluoro-2-isopropyl-6-(2-methoxypyridin-4-yl)phenyl)-4H-1,2,4-triazol-3-amine], for which the IC50 at NLRP3 [1] is not above 5000 nM. Further, in series [2], the AUC stood at 277 ng·h/mL, the clearance was found to be 60 mL/min/kg, the half-life is 2.57 h and the Vd came to 5.03 L/kg. On NLRP3 [3], this compound registered a concentration for half-maximal inhibition (IC50) not above 500 nM.

On to `CNCCCS(=O)(=O)c1nnc(Nc2c3c(cc4c2CCC4)CCC3)[nH]1` [Example 54, N-(1,2,3,5,6,7-hexahydro-s-indacen-4-yl)-5-((3-(methylamino)propyl)sulfonyl)-4H-1,2,4-triazol-3-amine], for which the IC50 at NLRP3 [1] is not above 10000 nM. Also, in series [2], the area under the curve (AUC) was 273 ng·h/mL, the clearance is 61.1 mL/min/kg, the half-life was 1.3 h and the Vd stood at 2.7 L/kg. In addition, the 50% inhibitory concentration (IC50) against NLRP3 [3] is not above 1000 nM.

As for `COc1cc(-c2cc(F)cc(C(C)C)c2Oc2nnc(S(=O)(=O)N3CCC4(CCN4C)CC3)[nH]2)ccn1` [Example 252, 7-((5-(4-fluoro-2-isopropyl-6-(2-methoxypyridin-4-yl)phenoxy)-4H-1,2,4-triazol-3-yl)sulfonyl)-1-methyl-1,7-diazaspiro[3.5]nonane], the 50% inhibitory concentration (IC50) at NLRP3 [1] is not above 5000 nM. In addition, in series [2], the exposure (AUC) is 362 ng·h/mL, the clearance came out at 51.1 mL/min/kg, the half-life is 0.426 h and the Vd worked out at 0.82 L/kg. Further, the 50% inhibitory concentration (IC50) against NLRP3 [3] was not above 1000 nM.

Regarding `CCN(CC)CCCS(=O)(=O)c1nnc(Nc2c(-c3ccnc(OC)c3)ccc3c2CCC3)[nH]1` [Example 76, 5-((3-(diethylamino)propyl)sulfonyl)-N-(5-(2-methoxypyridin-4-yl)-2,3-dihydro-1H-inden-4-yl)-4H-1,2,4-triazol-3-amine], the IC50 at NLRP3 [1] is not above 5000 nM. For the same compound, in series [2], the exposure (AUC) came out at 210 ng·h/mL, the clearance was 79.4 mL/min/kg, the half-life is 0.9 h and the Vd is 2.48 L/kg. Moreover, the half-maximal inhibitory concentration (IC50) on NLRP3 [3] is not above 500 nM.

For `O=S(=O)(CCCN1CCCC1)c1nnc(Nc2c3c(cc4c2CCC4)CCC3)[nH]1` [Example 49, N-(1,2,3,5,6,7-hexahydro-s-indacen-4-yl)-5-((3-(pyrrolidin-1-yl)propyl)sulfonyl)-4H-1,2,4-triazol-3-amine], on NLRP3 [1], the concentration for half-maximal inhibition (IC50) is not above 1000 nM. Further, in series [2], the AUC was 168 ng·h/mL, the clearance came out at 98.9 mL/min/kg, the half-life is 2.1 h and the Vd was 8.08 L/kg. Moreover, the concentration for half-maximal inhibition (IC50) against NLRP3 [3] is not above 500 nM.

On to `COc1cc(-c2cc(F)cc(C(C)C)c2Nc2nnc(S(=O)(=O)c3ccccc3)[nH]2)ccn1` [Example 45, N-(4-fluoro-2-isopropyl-6-(2-methoxypyridin-4-yl)phenyl)-3-(phenylsulfonyl)-1H-1,2,4-triazol-5-amine], for which the IC50 at NLRP3 [1] was not above 5000 nM. Further, in series [2], the exposure (AUC) amounted to 545 ng·h/mL, the clearance stood at 30.6 mL/min/kg, the half-life is 1.2 h and the Vd is 1.59 L/kg. On NLRP3 [3], this compound showed a half-maximal inhibitory concentration (IC50) not above 5000 nM.

In the case of `CN(C)C1CCN(S(=O)(=O)c2nnc(Nc3c4c(cc5c3CCC5)CCC4)[nH]2)CC1` [Example 118, 1-((5-((1,2,3,5,6,7-hexahydro-s-indacen-4-yl)amino)-4H-1,2,4-triazol-3-yl)sulfonyl)-N,N-dimethylpiperidin-4-amine], the IC50 on NLRP3 [1] was not above 500 nM. Moreover, in series [2], the AUC turned out to be 307 ng·h/mL, the clearance turned out to be 54.2 mL/min/kg, the half-life is 1.4 h and the Vd was 4.01 L/kg. This compound registered an IC50 on NLRP3 [3] not above 500 nM.

With `COc1cc(-c2ccc3c(c2Nc2nnc(S(=O)(=O)N4CC[C@H](C(C)(C)O)C4)[nH]2)CCC3)ccn1` [Example 231, (S)-2-(1-((5-((5-(2-methoxypyridin-4-yl)-2,3-dihydro-1H-inden-4-yl)amino)-4H-1,2,4-triazol-3-yl)sulfonyl)pyrrolidin-3-yl)propan-2-ol], the IC50 on NLRP3 [1] was not above 1000 nM. In series [2], the AUC came out at 459 ng·h/mL, the clearance was determined as 36.3 mL/min/kg, the half-life is 0.326 h and the Vd was determined as 0.494 L/kg. This compound also registered a concentration for half-maximal inhibition (IC50) against NLRP3 [3] not above 500 nM.

In the case of `CN1CCC2(CCN(S(=O)(=O)c3nnc(Nc4c5c(cc6c4CCC6)CCC5)[nH]3)CC2)C1` [Example 276, N-(1,2,3,5,6,7-hexahydro-s-indacen-4-yl)-5-((2-methyl-2,8-diazaspiro[4.5]decan-8-yl)sulfonyl)-4H-1,2,4-triazol-3-amine], the concentration for half-maximal inhibition (IC50) on NLRP3 [1] is not above 500 nM. Further, in series [2], the AUC amounted to 239 ng·h/mL, the clearance turned out to be 69.7 mL/min/kg, the half-life was 1.94 h and the Vd came to 7.51 L/kg. The compound further displayed an IC50 against NLRP3 [3] not above 500 nM.

The record behind these values is patent US20210261512A1, “NOVEL COMPOUNDS” (INFLAZOME LIMITED, priority 2018, published 2021).
